Assay results as given in ChEMBL document CHEMBL5136996, “Semisynthesis and Non-Small-Cell Lung Cancer Cytotoxicity Evaluation of Germacrane-Type Sesquiterpene Lactones from Elephantopus scaber” (J Nat Prod, 2022).
Calls of active or inactive are those of the source. The rule behind the calls is not given here.

Key:
A549 [1] = assay: Induction of apoptosis in human A549 cells assessed as increase in cleaved caspase-9 expression level at 3 to 10 uM incubated for 48 hrs by western blot analysis; assay type: functional, cell-based; conditions: dose 3-10 µM
A549 [2] = assay: Induction of apoptosis in human A549 cells assessed as decrease in mitochondrial membrane potential by measuring reduction in ratio of red to green fluorescence intensity at 3 to 10 uM incubated for 48 hrs by JC-1 staining based flow cytometry; assay type: functional, cell-based; conditions: dose 3-10 µM
A549 [3] = assay: Induction of apoptosis in human A549 cells assessed as late apoptotic cells at 3 uM incubated for 48 hrs by AnnexinV-FITC/PI staining based flow cytometry (reference value: 1.58 to 2.23%); assay type: functional
A549 [4] = assay: Induction of apoptosis in human A549 cells assessed as viable cells at 3 uM incubated for 48 hrs by AnnexinV-FITC/PI staining based flow cytometry (reference value: 91.5 to 92.9%); assay type: functional; conditions: read-out: Activity
A549 [5] = assay: Induction of intracellular ROS generation in human A549 cells incubated for 48 hrs by H2DCF-DA staining based flow cytometry; assay type: functional, cell-based; conditions: dose 3-10 µM, DDE = dose-dependent effect
A549 [6] = assay: Induction of apoptosis in human A549 cells assessed as necrotic cells at 3 uM incubated for 48 hrs by AnnexinV-FITC/PI staining based flow cytometry (reference value: 2.23 to 4.25%); assay type: functional
A549 [7] = assay: Induction of apoptosis in human A549 cells assessed as late apoptotic cells at 10 uM incubated for 48 hrs by AnnexinV-FITC/PI staining based flow cytometry (reference value: 1.58 to 2.23%); assay type: functional
A549 [8] = assay: Induction of apoptosis in human A549 cells assessed as necrotic cells at 10 uM incubated for 48 hrs by AnnexinV-FITC/PI staining based flow cytometry (reference value: 2.23 to 4.25%); assay type: functional
A549 [9] = assay: Induction of cell cycle arrest in human A549 cells assessed as accumulation of cells at G2/M phase incubated for 48 hrs by PI staining based flow cytometry (reference value: 9.7 to 17.2%); assay type: functional
A549 [10] = assay: Induction of apoptosis in human A549 cells assessed as early apoptotic cells at 10 uM incubated for 48 hrs by AnnexinV-FITC/PI staining based flow cytometry (reference value: 2.07 to 3.24%); assay type: functional
A549 [11] = assay: Cytotoxicity against human A549 cells assessed as reduction in cell viability incubated for 48 hrs by MTT assay; assay type: functional, cell-based; conditions: A549, 48 h
NCI-H460 = assay: Cytotoxicity against human NCI-H460 cells assessed as reduction in cell viability incubated for 48 hrs by MTT assay; assay type: functional, cell-based; conditions: NCI-H460, 48 h
A549 [12] = assay: Induction of apoptosis in human A549 cells assessed as increase in cleaved caspase-3 expression level at 3 to 10 uM incubated for 48 hrs by western blot analysis; assay type: functional, cell-based; conditions: dose 3-10 µM
A549 [13] = assay: Induction of apoptosis in human A549 cells assessed as viable cells at 10 uM incubated for 48 hrs by AnnexinV-FITC/PI staining based flow cytometry (reference value: 91.5 to 92.9%); assay type: functional; conditions: read-out: Activity
A549 [14] = assay: Induction of apoptosis in human A549 cells assessed as early apoptotic cells at 3 uM incubated for 48 hrs by AnnexinV-FITC/PI staining based flow cytometry (reference value: 2.07 to 3.24%); assay type: functional
[15] = Cytotoxicity against rat Primary hepatocytes assessed as cell viability at 25 uM incubated for 12 hrs; assay type: toxicity, cell-based, Hepatocyte; conditions: read-out: Activity

## C=C1C(=O)O[C@H]2CC3=C[C@H](C/C(C)=C/[C@@H](OC(=O)CCCCCCC(=O)O[C@@H]4/C=C(\C)C[C@H]5C=C(C[C@@H]6OC(=O)C(=C)[C@H]64)C(=O)O5)[C@H]12)OC3=O
A549 [1]
  Activity: Active
A549 [2]
  Activity: Active
A549 [3]
  Activity: 0.7%
A549 [4]
  viability at 3 µM: 63.7%
A549 [5]
  Activity: Dde
A549 [6]
  Activity: 0.14%
A549 [7]
  Activity: 44.1%
A549 [8]
  Activity: 10.4%
A549 [9]
  Activity: 62.4%
A549 [10]
  Activity: 30.9%
A549 [11]
  IC50: 0.7 µM
NCI-H460
  IC50: 3.2 µM
A549 [12]
  Activity: Active
A549 [13]
  viability at 10 µM: 14.6%
A549 [14]
  Activity: 35.5%
[15]
  viability at 12 h, 25 µM: 59.2%

## C=C1C(=O)O[C@H]2CC3=C[C@H](C/C(C)=C/[C@@H](OC(=O)CCCCBr)[C@H]12)OC3=O
A549 [11]
  IC50: > 10 µM
NCI-H460
  IC50: > 10 µM

## C=C1C(=O)O[C@H]2CC3=C[C@H](C/C(C)=C/[C@@H](OC(=O)CC4CCCCC4)[C@H]12)OC3=O
A549 [11]
  IC50: 6.9 µM
NCI-H460
  IC50: 2 µM

## C=C1C(=O)O[C@@H]2C3O[C@]3(C)CC/C=C(\C)CC[C@@H]12 (stereo not given in full)
A549 [11]
  IC50: > 10 µM
NCI-H460
  IC50: 9.6 µM

## C=C1C(=O)O[C@H]2CC3=C[C@H](C/C(C)=C/[C@@H](O)[C@H]12)OC3=O
A549 [11]
  IC50: > 10 µM
NCI-H460
  IC50: > 10 µM

## C=C1C(=O)O[C@H]2CC3=C[C@H](C/C(C)=C/[C@@H](OC(=O)CCC(=O)O[C@@H]4/C=C(\C)C[C@H]5C=C(C[C@@H]6OC(=O)C(=C)[C@H]64)C(=O)O5)[C@H]12)OC3=O
A549 [11]
  IC50: > 10 µM
NCI-H460
  IC50: > 10 µM

## C=C1C(=O)O[C@H]2CC3=C[C@H](C/C(C)=C/[C@@H](OC(=O)/C=C/c4ccncc4)[C@H]12)OC3=O
A549 [11]
  IC50: 4 µM
NCI-H460
  IC50: 2.1 µM

## CO[C@H]1C(=O)O[C@H]2CC3=C[C@H](C/C(C)=C/[C@@H](O)[C@@H]21)OC3=O
A549 [11]
  IC50: > 10 µM
NCI-H460
  IC50: > 10 µM

## C=C1C(=O)O[C@H]2CC3=C[C@H](C/C(C)=C/[C@@H](OC(=O)c4ccc(C(C)=O)cc4)[C@H]12)OC3=O
A549 [11]
  IC50: 2.3 µM
NCI-H460
  IC50: 2.2 µM

## C=C1C(=O)O[C@H]2CC3=C[C@H](C/C(C)=C/[C@@H](OC(=O)CCCC(=O)O[C@@H]4/C=C(\C)C[C@H]5C=C(C[C@@H]6OC(=O)C(=C)[C@H]64)C(=O)O5)[C@H]12)OC3=O
A549 [11]
  IC50: 5.6 µM
NCI-H460
  IC50: > 10 µM

## C=C1C(=O)O[C@H]2CC3=C[C@H](C/C(C)=C/[C@@H](OC(=O)C(C)(C)CC)[C@H]12)OC3=O
A549 [11]
  IC50: 2.2 µM
NCI-H460
  IC50: 6.1 µM

## C=C1C(=O)O[C@H]2CC3=C[C@H](C/C(C)=C/[C@@H](OC(=O)c4ccc(C(=O)O[C@@H]5/C=C(\C)C[C@H]6C=C(C[C@@H]7OC(=O)C(=C)[C@H]75)C(=O)O6)s4)[C@H]12)OC3=O
A549 [11]
  IC50: 3.6 µM
NCI-H460
  IC50: 5.8 µM

## C=C1C(=O)O[C@H]2CC3=C[C@H](C/C(C)=C/[C@@H](OC(=O)c4ccc(C(F)(F)F)cc4)[C@H]12)OC3=O
A549 [11]
  IC50: > 10 µM
NCI-H460
  IC50: > 10 µM

## C=C1C(=O)O[C@H]2CC3=C[C@H](C/C(C)=C/[C@@H](OC(=O)c4ccncc4)[C@H]12)OC3=O
A549 [11]
  IC50: > 10 µM
NCI-H460
  IC50: 5.6 µM

## C=C1C(=O)O[C@H]2CC3=C[C@H](C/C(C)=C/[C@@H](OC(=O)/C=C/c4ccc5c(c4)OCO5)[C@H]12)OC3=O
A549 [11]
  IC50: 4.6 µM
NCI-H460
  IC50: 9.3 µM

## C=C1C(=O)O[C@H]2CC3=C[C@H](C/C(C)=C/[C@@H](OC(=O)CCl)[C@H]12)OC3=O
A549 [11]
  IC50: > 10 µM
NCI-H460
  IC50: > 10 µM

## C=C1C(=O)O[C@H]2CC3=C[C@H](C/C(C)=C/[C@@H](OC(=O)/C=C\c4ccc5c(c4)OCO5)[C@H]12)OC3=O
A549 [11]
  IC50: 6.1 µM
NCI-H460
  IC50: > 10 µM

## C=C1C(=O)O[C@H]2CC3=C[C@H](C/C(C)=C/[C@@H](OC(=O)C45CCC(C)(C(=O)O4)C5(C)C)[C@H]12)OC3=O
A549 [11]
  IC50: 3.4 µM
NCI-H460
  IC50: 2 µM

## C=C1C(=O)O[C@H]2CC3=C[C@H](C/C(C)=C/[C@@H](OC(=O)/C=C/c4ccc(C(F)(F)F)cc4)[C@H]12)OC3=O
A549 [11]
  IC50: 5.9 µM
NCI-H460
  IC50: 1.4 µM

## C=C1C(=O)O[C@H]2CC3=C[C@H](C/C(C)=C/[C@@H](OC(=O)c4ccc([N+](=O)[O-])cc4)[C@H]12)OC3=O
A549 [11]
  IC50: > 10 µM
NCI-H460
  IC50: > 10 µM

## C=C1C(=O)O[C@H]2CC3=C[C@H](C/C(C)=C/[C@@H](OC(=O)C4CC4)[C@H]12)OC3=O
A549 [11]
  IC50: 3.2 µM
NCI-H460
  IC50: 3 µM

## C=C1C(=O)O[C@H]2CC3=C[C@H](C/C(C)=C/[C@@H](OC(=O)c4ccc(-c5ccccc5)cc4)[C@H]12)OC3=O
A549 [11]
  IC50: 4.6 µM
NCI-H460
  IC50: 3.5 µM

## C=C1C(=O)O[C@H]2CC3=C[C@H](C/C(C)=C/[C@@H](OC(=O)CCCCC)[C@H]12)OC3=O
A549 [11]
  IC50: > 10 µM
NCI-H460
  IC50: 5.9 µM

## C=C1C(=O)O[C@H]2CC3=C[C@H](C/C(C)=C/[C@@H](OC(=O)CCCCC(=O)O[C@@H]4/C=C(\C)C[C@H]5C=C(C[C@@H]6OC(=O)C(=C)[C@H]64)C(=O)O5)[C@H]12)OC3=O
A549 [11]
  IC50: 2.1 µM
NCI-H460
  IC50: 8.1 µM

## C=C1C(=O)O[C@H]2CC3=C[C@H](C/C(C)=C/[C@@H](OC(=O)/C=C/c4ccc(N(C)C)cc4)[C@H]12)OC3=O
A549 [11]
  IC50: > 10 µM
NCI-H460
  IC50: 1.3 µM

## C=C1C(=O)O[C@H]2CC3=C[C@H](C/C(C)=C/[C@@H](OC(=O)C4(NC(=O)OCc5ccccc5)CC4)[C@H]12)OC3=O
A549 [11]
  IC50: 5.8 µM
NCI-H460
  IC50: 3 µM

## C=C1C(=O)O[C@H]2CC3=C[C@H](C/C(C)=C/[C@@H](OC(=O)CCSSCCC(=O)O[C@@H]4/C=C(\C)C[C@H]5C=C(C[C@@H]6OC(=O)C(=C)[C@H]64)C(=O)O5)[C@H]12)OC3=O
A549 [11]
  IC50: 3.1 µM
NCI-H460
  IC50: 7.8 µM

## C=C1C(=O)O[C@H]2CC3=C[C@H](C/C(C)=C/[C@@H](OC(=O)c4ccc(C(=O)O[C@@H]5/C=C(\C)C[C@H]6C=C(C[C@@H]7OC(=O)C(=C)[C@H]75)C(=O)O6)cc4)[C@H]12)OC3=O
A549 [11]
  IC50: 1.5 µM
NCI-H460
  IC50: 0.7 µM

## C=C1C(=O)O[C@@H]2/C=C(\C)C[C@H]3C=C(C[C@H](OC(=O)/C(C)=C\C)[C@@H]12)C(=O)O3
A549 [11]
  IC50: > 10 µM
NCI-H460
  IC50: > 10 µM

## C=C1C(=O)O[C@H]2CC3=C[C@H](C/C(C)=C/[C@@H](OC(=O)/C=C/c4cccc(OC)c4)[C@H]12)OC3=O
A549 [11]
  IC50: 6.2 µM
NCI-H460
  IC50: > 10 µM

## C=C1C(=O)O[C@H]2CC3=C[C@H](C/C(C)=C/[C@@H](OC(=O)C4CCC(F)(F)CC4)[C@H]12)OC3=O
A549 [11]
  IC50: 6.4 µM
NCI-H460
  IC50: > 10 µM

## C=C1C(=O)O[C@H]2CC3=C[C@H](C/C(C)=C/[C@@H](OC(=O)CC(C)C)[C@H]12)OC3=O
A549 [11]
  IC50: 2.5 µM
NCI-H460
  IC50: 3.8 µM

## C=C1C(=O)O[C@H]2CC3=C[C@H](C/C(C)=C/[C@@H](OC(=O)/C=C/c4ccccc4)[C@H]12)OC3=O
A549 [11]
  IC50: 4.8 µM
NCI-H460
  IC50: > 10 µM
